Laboratory results reported in US6737383B1, “Herbicidal oxadiazolidines” (priority 1999, dated 2004).

How the values were obtained:
[1] = test system: bedstraw; test: Test B pre/postemergence bedstraw; assay type: in vivo, Galium aparine; conditions: Postemergence, Rate 250 g/ha; scale 0 to 10, 0 is no effect, 10 is complete control
How it was run: (§1)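 Response is a visual 0-to-10 score relative to untreated plants, where 0 means no effect and 10 means complete control, taken twelve to sixteen days after application. Treatments went onto soil at planting and onto foliage of 1- to 4-leaf plants, using a surfactant-containing non-phytotoxic solvent.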

[2] = test system: morningglory; test: Test B pre/postemergence morningglory; assay type: in vivo, Ipomoea hederacea
How it was run: as §1

[3] = test system: duck salad; test: Test B flood test duck salad; assay type: in vivo, Heteranthera limosa; conditions: Pre-emergence
How it was run: (§2)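 Plants were grown to the 2-leaf stage before treatment with test chemical, then held in a greenhouse for twelve to sixteen days. Injury was visually rated against untreated controls on a 0–10 scale, where 0 is no effect and 10 is complete control.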

[4] = test system: rape; test: Test B pre/postemergence rape; assay type: in vivo, Brassica napus
How it was run: as §1

[5] = test system: soybean; test: Test B pre/postemergence soybean; assay type: in vivo, Glycine max
How it was run: as §1

[6] = test system: cocklebur; test: Test B pre/postemergence cocklebur; assay type: in vivo, Xanthium strumarium
How it was run: as §1

[7] = test system: sugar beet; test: Test B pre/postemergence sugar beet; assay type: in vivo, Beta vulgaris
How it was run: as §1

[8] = test system: blackgrass; test: Test B pre/postemergence blackgrass; assay type: in vivo, Alopecurus myosuroides
How it was run: as §1

[9] = test system: bamyardgrass; test: Test B flood test barnyardgrass; assay type: in vivo, Echinochloa crus-galli; conditions: Pre-emergence
How it was run: as §2

[10] = test system: purple nutsedge; test: Test B pre/postemergence purple nutsedge; assay type: in vivo, Cyperus rotundus
How it was run: as §1

[11] = test system: corn; test: Test B pre/postemergence corn; assay type: in vivo, Zea mays
How it was run: as §1

[12] = test system: crabgrass; test: Test B pre/postemergence crabgrass; assay type: in vivo, Digitaria sanguinalis
How it was run: as §1

[13] = test system: surinam grass; test: Test B pre/postemergence surinam grass; assay type: in vivo, Brachiaria decumbens
How it was run: as §1

[14] = test system: wheat; test: Test B pre/postemergence wheat; assay type: in vivo, Triticum aestivum
How it was run: as §1

[15] = test system: velvetleaf; test: Test B pre/postemergence velvetleaf; assay type: in vivo, Abutilon theophrasti
How it was run: as §1

[16] = test system: smallflower flatsedge; test: Test B flood test smallflower flatsedge; assay type: in vivo, Cyperus difformis; conditions: Pre-emergence
How it was run: as §2

[17] = test system: pigweed; test: Test B pre/postemergence pigweed; assay type: in vivo, Amaranthus retroflexus
How it was run: as §1

[18] = test system: wild oat; test: Test B pre/postemergence wild oat; assay type: in vivo, Avena fatua
How it was run: as §1

[19] = test system: giant foxtail; test: Test B pre/postemergence giant foxtail; assay type: in vivo, Setaria faberii
How it was run: as §1

[20] = test system: rice; test: Test B flood test rice; assay type: in vivo, Oryza sativa; conditions: Pre-emergence
How it was run: as §2

[21] = Postemergence, Rate 250 g/ha, scale 0 to 10, 0 is no effect, 10 is complete control
[22] = Postemergence, Rate 500 g/ha, scale of 0 to 10 where 0 is no effect and 10 is complete control
[23] = Preemergence, Rate 62 g/ha, scale 0 to 10 (0 no effect, 10 complete control)
[24] = Preemergence, Rate 125 g/ha, scale of 0 to 10 where 0 is no effect and 10 is complete control
[25] = Preemergence, Rate 250 g/ha, scale 0 to 10, 0 is no effect, 10 is complete control
[26] = Preemergence, Rate 500 g/ha, scale of 0 to 10 where 0 is no effect and 10 is complete control
[27] = Rate 62 g/ha, Postemergence, scale of 0 to 10 where 0 is no effect and 10 is complete control
[28] = Rate 62 g/ha, flood test species, visual evaluation after twelve to sixteen days
[29] = Rate 250 g/ha, flood-test species, scale 0 to 10, 0 is no effect, 10 is complete control
[30] = Rate 500 g/ha, flood test species, scale 0 to 10 (0 no effect, 10 complete control)
[31] = Postemergence, Rate 125 g/ha, scale 0 to 10, 0 is no effect, 10 is complete control
[32] = Preemergence, Rate 250 g/ha, scale of 0 to 10 where 0 is no effect and 10 is complete control

CC(C)Cn1c(=O)on(C(=O)N(c2ccc(F)cc2F)C(C)C)c1=O [Compound 394]
Redroot pigwee 6: Redroot pigweed plant response rating [17, 25]
3: Ducksalad plant response rating [3, 29] | Ducksalad plant response rating [3, 30] | Soybean plant response rating [5, 27] | Plant response rating, Sugarbeets [7, 24] | Corn plant response rating [11, 25] | Velvetleaf plant response rating [15, 22]
1: Soybean plant response rating [5, 25] | Plant response rating, Sugarbeets [7, 21] | Plant response rating, B. signalgrass [13, 31] | Plant response rating, Wheat [14, 24] | Plant response rating, Velvetleaf [15, 23] | Plant response rating, Redroot pigweed [17, 23] | Plant response rating, Rice (0 to 10 scale, 0 is no effect, 10 is complete control) [20, 28] | Rice plant response rating [20, 29] | Rice plant response rating [20, 30]
0: Plant response rating, Morningglory [2, 23] | Plant response rating, Morningglory [2, 24] | Morningglory plant response rating [2, 25] | Morningglory plant response rating [2, 27] | Plant response rating, Ducksalad (0 to 10 scale, 0 is no effect, 10 is complete control) [3, 28] | Plant response rating, Rape [4, 21] | Plant response rating, Rape [4, 23] | Rape plant response rating [4, 27] | Plant response rating, Soybean [5, 23] | Plant response rating, Cocklebur [6, 31] | Plant response rating, Cocklebur [6, 21] | Plant response rating, Cocklebur [6, 23] | Plant response rating, Cocklebur [6, 24] | Cocklebur plant response rating [6, 25] | Cocklebur plant response rating [6, 26] | Cocklebur plant response rating [6, 27] | Plant response rating, Sugarbeets [7, 23] | Sugarbeets plant response rating [7, 27] | Plant response rating, Barnyardgrass (0 to 10 scale, 0 is no effect, 10 is complete control) [9, 28] | Plant response rating, Nutsedge [10, 21] | Plant response rating, Nutsedge [10, 23] | Plant response rating, Nutsedge [10, 24] | Nutsedge plant response rating [10, 27] | Plant response rating, Corn [11, 31] | Plant response rating, Corn [11, 21] | Corn plant response rating [11, 22] | Plant response rating, Corn [11, 23] | Plant response rating, Corn [11, 24] | Corn plant response rating [11, 27] | B. signalgrass plant response rating [13, 27] | Plant response rating, Wheat [14, 23] | Wheat plant response rating [14, 27] | Plant response rating, Velvetleaf [15, 21] | Velvetleaf plant response rating [15, 27] | Redroot pigweed plant response rating [17, 27] | Wild oats plant response rating [18, 27]
2: Morningglory plant response rating [2, 26] | Plant response rating, Rape [4, 24] | Soybean plant response rating [5, 26] | Blackgrass plant response rating [8, 27] | Nutsedge plant response rating [10, 25] | Plant response rating, Crabgrass [12, 31] | Crabgrass plant response rating [12, 27] | Plant response rating, B. signalgrass [13, 21] | Plant response rating, B. signalgrass [13, 23] | Plant response rating, Redroot pigweed [17, 21] | Plant response rating, Redroot pigweed [17, 24]
8: Plant response rating, Blackgrass [8, 24] | Barnyardgrass plant response rating [9, 30] | Plant response rating, Crabgrass [12, 21] | B. signalgrass plant response rating [13, 32] | S. Flatsedge plant response rating [16, 29] | S. Flatsedge plant response rating [16, 30] | Plant response rating, Giant foxtail [19, 21]
5: Plant response rating, Bedstraw [1] | Plant response rating, Soybean [5, 21] | Soybean plant response rating [5, 22] | Sugarbeets plant response rating [7, 22] | Corn plant response rating [11, 26] | Plant response rating, B. signalgrass [13, 24] | Plant response rating, Velvetleaf [15, 24]
4: Cocklebur plant response rating [6, 22] | Sugarbeets plant response rating [7, 25] | Wheat plant response rating [14, 22] | Plant response rating, S. Flatsedge (0 to 10 scale, 0 is no effect, 10 is complete control) [16, 28] | Plant response rating, Wild oats [18, 23]
6: Plant response rating, Morningglory [2, 21] | Barnyardgrass plant response rating [9, 29] | Nutsedge plant response rating [10, 26] | Wheat plant response rating [14, 25] | Wild oats plant response rating [18, 22] | Plant response rating, Wild oats [18, 24]
10: Blackgrass plant response rating [8, 32] | Blackgrass plant response rating [8, 26] | Plant response rating, Crabgrass [12, 24] | Crabgrass plant response rating [12, 25] | Crabgrass plant response rating [12, 26] | B. signalgrass plant response rating [13, 26] | Redroot pigweed plant response rating [17, 26] | Wild oats plant response rating [18, 25] | Wild oats plant response rating [18, 26] | Plant response rating, Giant foxtail [19, 24] | Giant foxtail plant response rating [19, 25] | Giant foxtail plant response rating [19, 26]
7: Morningglory plant response rating [2, 22] | Rape plant response rating [4, 25] | Sugarbeets plant response rating [7, 26] | Plant response rating, Blackgrass [8, 23] | Velvetleaf plant response rating [15, 25] | Velvetleaf plant response rating [15, 26] | Redroot pigweed plant response rating [17, 22] | Plant response rating, Giant foxtail [19, 31]
9: Rape plant response rating [4, 26] | Plant response rating, Blackgrass [8, 21] | Crabgrass plant response rating [12, 22] | Plant response rating, Crabgrass [12, 23] | B. signalgrass plant response rating [13, 22] | Wheat plant response rating [14, 26] | Giant foxtail plant response rating [19, 22] | Plant response rating, Giant foxtail [19, 23]
